Consider 23 compounds from ChEMBL document CHEMBL1201862, “PubChem BioAssay data set” (2004).

Where “and” joins values, the source holds several entries; their conditions need not be identical. Identical values can stand only once.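 Growth conditions: 96-well plates. Treatment: test compound, 48 hours, 5 concentrations. Analysis: linear interpolation between bracketing concentrations; unreached endpoints set to highest concentration. At the GI50, growth is halved.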 Calls of active or inactive are those of the source. No stated cut-off is given here; in the data, active = GI50 up to about 1.1 µM and inactive = higher.

Some test systems named below: DLD-1; DMS-273; LXFL 529; M19-MEL; HOP-18; RXF 631; SNB-78; XF498; KM-20L2.
Holding throughout (experiment): inhibition of tumour cell growth, NCI panel, 48 h

Take `O=C(c1ccc(Cl)cc1)c1cnc(Nc2ccccc2Cl)s1`: the GI50 in the assay on DLD-1 is 28.5 µM (inactive); with DMS-273, 20.1 µM (inactive); in the assay with LXFL 529 it was 16.3 µM (inactive); in the assay with M19-MEL it was 34.1 µM (inactive).

For the compound `O=C(NC(=O)c1c(F)cccc1F)Nc1cccc(Oc2ncc(Cl)cn2)c1`, the GI50 was > 100 µM (inactive) in the assay with DLD-1; 2.45 µM (inactive) with DMS-273; > 100 µM (inactive) in the assay on HOP-18; > 91 µM (inactive) in the assay with LXFL 529; > 100 µM (inactive) in the assay with M19-MEL; > 100 µM (inactive) in the assay on RXF 631. Also, the values for the GI50 with SNB-78 and in the assay on XF498 were > 100 µM (inactive) and 19.7 µM (inactive), respectively.

As for `COC(=O)CCC1CCc2c(OC)ccc(OC)c2C1=O` (centres undefined), the GI50 in the assay with DLD-1, in the assay with DMS-273, in the assay on KM-20L2, in the assay with LXFL 529 and in the assay with SNB-78 was > 100 µM (inactive) throughout.

As to `CSC1CC2C(CC1(C)O)C2(C)C` (centres undefined), the GI50 with DLD-1 is > 100 µM (inactive); in the assay with DMS-273 it was > 100 µM (inactive) and 69.3 µM (inactive); in the assay with KM-20L2, > 100 µM (inactive) and 74.8 µM (inactive); in the assay on LXFL 529 it was > 100 µM (inactive); with M19-MEL, > 100 µM (inactive); in the assay on SNB-78, > 100 µM (inactive).

For `Nc1ccc(Sc2c3ccccc3nc3ccccc23)cc1`, the GI50 in the assay with DLD-1 was 6 µM (inactive); with DMS-273, 14.1 µM (inactive); in the assay on HOP-18, 22.3 µM (inactive); in the assay on KM-20L2, 16.7 µM (inactive); in the assay on LXFL 529, 7.96 µM (inactive); in the assay on M19-MEL it was 20.5 µM (inactive). The GI50 in the assay on SNB-78 is 22.4 µM (inactive); in the assay with XF498, 14.4 µM (inactive).

As to `Cc1nc2ccccc2c(=O)n1NC(=S)Nc1cccc(Cl)c1`, the GI50 in the assay with DLD-1, in the assay on DMS-273, in the assay with HOP-18, with LXFL 529 and in the assay on M19-MEL was > 100 µM (inactive) each time.

As to `Cc1ccc(NCCN(C)C)c2c(=O)c3cc(O)ccc3sc12`, the GI50 in the assay on DLD-1 is 6.61 µM (inactive); in the assay with DMS-273, 1.05 µM (active); in the assay with HOP-18, 3.64 µM (inactive); with KM-20L2 it was 8.87 µM (inactive); in the assay with LXFL 529, 8.18 µM (inactive); in the assay on M19-MEL, 10.4 µM (inactive). The values for the GI50 in the assay on SNB-78 and with XF498 were 15.6 µM (inactive) and 4.12 µM (inactive), respectively.

For the compound `CC1=N/C(=C\c2c(O)ccc3ccccc23)C(=O)O1`, the GI50 with DLD-1, in the assay on HOP-18, in the assay with KM-20L2, in the assay on LXFL 529, with M19-MEL and in the assay on SNB-78 was > 100 µM (inactive) in each case.

In the case of `[N-]=[N+]=NC1C2CC3CC(C2)CC1C3` (centres undefined), the GI50 in the assay on DMS-273, in the assay on HOP-18, with KM-20L2, in the assay with LXFL 529, with M19-MEL and in the assay on RXF 631 was > 100 µM (inactive) each time. Also, in the assay with SNB-78, the GI50 was > 100 µM (inactive).

In the case of `O=C(Nc1ccc(S(=O)(=O)N[C@@H](C(=O)O)c2ccccc2)cc1)c1ccc(F)cc1`, the GI50 in the assay with DLD-1, in the assay on DMS-273, with HOP-18, with KM-20L2, with LXFL 529 and in the assay with M19-MEL was > 100 µM (inactive) throughout. The GI50 with XF498 was 67.5 µM (inactive).

Regarding `COc1cc([C@@H]2c3cc4c(cc3[C@@H](NC(=O)c3cccc([N+](=O)[O-])c3)C3COC(=O)[C@@H]32)OCO4)cc(OC)c1O` (some centres undefined), the GI50 with DLD-1 is 3.33 µM (inactive); in the assay with DMS-273 it was 0.149 µM (active); with KM-20L2, 2.82 µM (inactive); in the assay on LXFL 529, 10.3 µM (inactive); in the assay with M19-MEL, 2.55 µM (inactive); with RXF 631, 1.31 µM (inactive). Further, in the assay with SNB-78, the GI50 was 4.73 µM (inactive).

Turning to `O/N=C/c1cc2c(cc1Br)OCO2`, the GI50 with DLD-1, in the assay on DMS-273, with HOP-18, with KM-20L2, in the assay with LXFL 529 and in the assay on M19-MEL was > 100 µM (inactive) throughout. The GI50 in the assay with RXF 631 and in the assay on SNB-78 was > 100 µM (inactive) in each case.

Consider `Cc1ccccc1C(C#N)/C(=N/NC(N)=S)C(=O)Nc1c(C)cccc1C` (centres undefined), for which the GI50 is > 100 µM (inactive) with DLD-1; > 100 µM (inactive) in the assay with HOP-18; > 100 µM (inactive) in the assay on KM-20L2; > 100 µM (inactive) in the assay on LXFL 529; 80 µM (inactive) in the assay with M19-MEL; > 100 µM (inactive) in the assay on RXF 631. The GI50 with SNB-78 was > 100 µM (inactive); in the assay with XF498, 32.8 µM (inactive).

Regarding `O=C(O)/C(Cl)=C(/Cl)C(=O)Nc1cccc(Cl)c1`, the GI50 with DLD-1 is 15.6 µM (inactive); in the assay on DMS-273, 12.9 µM (inactive); in the assay on HOP-18, 20.4 µM (inactive); in the assay with KM-20L2, 19.7 µM (inactive); in the assay on LXFL 529 it was 15.4 µM (inactive); in the assay on M19-MEL, 15.6 µM (inactive). Also, the GI50 in the assay with RXF 631 is 22 µM (inactive); in the assay with SNB-78 it was 25.2 µM (inactive); with XF498 it was 18.1 µM (inactive).

Regarding `Cc1cccc(C)c1NC(=O)C(=O)Cc1nc2ccccc2s1`, the GI50 with DLD-1, in the assay with DMS-273, in the assay with KM-20L2, in the assay with LXFL 529, with M19-MEL and in the assay with SNB-78 was > 100 µM (inactive) throughout. Besides, the GI50 in the assay on XF498 was > 100 µM (inactive).

On to `C[C@]12CCC(=O)C=C1CC[C@@H]1C2CC[C@@]2(C)C1CC[C@@H]2OC(=O)C12OC1CCC2=O` (some centres undefined), for which the GI50 was 15.5 µM (inactive) with DMS-273; 17.4 µM (inactive) in the assay with HOP-18; 18.7 µM (inactive) with KM-20L2; 14.8 µM (inactive) in the assay on LXFL 529; 16.7 µM (inactive) in the assay on M19-MEL; 16.8 µM (inactive) in the assay with SNB-78. The GI50 in the assay on XF498 was 13.9 µM (inactive).

On to `CC(c1ccccc1)N1CC(C)(c2ccccc2)N(O)C(c2ccccc2)C1C` (centres undefined), for which the GI50 in the assay on DLD-1 was 23.7 µM (inactive); with DMS-273 it was 7.93 µM (inactive); in the assay on HOP-18, 17.7 µM (inactive); in the assay on KM-20L2 it was 4.39 µM (inactive); with LXFL 529 it was 9.06 µM (inactive); in the assay on M19-MEL it was > 10 µM (inactive). Also, the GI50 in the assay with RXF 631 is 12.6 µM (inactive); with SNB-78, 15.1 µM (inactive).

In the case of `Clc1ccc(OCCSCCCCCCCCCCSCCOc2ccc(Cl)cc2)cc1`, the GI50 in the assay with DLD-1, with DMS-273, in the assay with HOP-18, in the assay on KM-20L2, in the assay with M19-MEL and in the assay with SNB-78 was > 100 µM (inactive) in each case.

Regarding `CC(C)(C)c1nc2c(o1)C(=O)c1ccccc1C2=O`, the GI50 in the assay with DLD-1 is 5.83 µM (inactive); in the assay with DMS-273 it was 5.08 µM (inactive); in the assay on HOP-18, 7.19 µM (inactive); in the assay with KM-20L2 it was 22.1 µM (inactive); with LXFL 529 it was 6.44 µM (inactive); with M19-MEL, 1.25 µM (inactive). Moreover, the GI50 in the assay on RXF 631 was 5.92 µM (inactive); in the assay on SNB-78 it was 11.5 µM (inactive); in the assay with XF498, 2.67 µM (inactive).

On to `COC(=O)C12C3C4C1C1C2C3C41C(=O)OC(C)(C)C` (centres undefined), for which the GI50 in the assay on DLD-1 was > 47.9 µM (inactive); in the assay on DMS-273 it was > 44.1 µM (inactive); with HOP-18, > 100 µM (inactive); with KM-20L2 it was > 100 µM (inactive); in the assay on LXFL 529 it was > 100 µM (inactive); with M19-MEL it was > 100 µM (inactive). The GI50 in the assay with RXF 631, in the assay on SNB-78 and in the assay with XF498 was > 100 µM (inactive) in each case.

`COC(=O)C(C(=O)C(=O)Nc1cccc(O)c1)c1nc2ccc(Cl)cc2nc1O` (centres undefined): the GI50 in the assay with DLD-1 was > 100 µM (inactive); in the assay on HOP-18 it was 98.9 µM (inactive); in the assay on KM-20L2, > 100 µM (inactive); with LXFL 529 it was > 100 µM (inactive); with M19-MEL, > 100 µM (inactive); in the assay with RXF 631 it was > 100 µM (inactive). For the same compound, the GI50 with SNB-78 is > 100 µM (inactive).

Take `Cc1cc2c(=O)cc(-c3ccc(C(F)(F)F)cc3)oc2c(C(=O)O)c1C`: the GI50 in the assay on DLD-1, in the assay on DMS-273, with HOP-18, in the assay with KM-20L2, with LXFL 529 and with M19-MEL was > 100 µM (inactive) throughout. Further, the GI50 in the assay with RXF 631, in the assay on SNB-78 and in the assay with XF498 was > 100 µM (inactive) throughout.

In the case of `Oc1cc(-c2ccccn2)nc2ccc(Cl)cc12`, the GI50 in the assay with DLD-1 was 41.5 µM (inactive); with HOP-18, 57.5 µM (inactive); with LXFL 529, 27.3 µM (inactive); with M19-MEL it was 24.8 µM (inactive); in the assay with SNB-78, 80.7 µM (inactive); with XF498, 21.5 µM (inactive).
